Data from patent publication US9249131B2, “Modulators of ATP-binding cassette transporters” (Vertex Pharmaceuticals Incorporated, priority 2003, dated 2016).

Biological target: T1, ΔF508-CFTR (Homo sapiens, UniProt P13569, DEL508-508)
T1 construct: expressed in transfected cells; host or cells: NIH3T3 mouse fibroblasts stably expressing ΔF508-CFTR for the optical, whole-cell and single-channel assays; Fisher rat epithelial (FRT) cells for Ussing chamber follow-up
Test: Assays for ΔF508-CFTR correction and potentiator properties (membrane potential optical and electrophysiological methods)
Type: cell-based
Details: CFTR modulation; for % Activity: % Efficacy; for EC50: tested using the above methods
Source text: Assays for Detecting and Measuring ΔF508-CFTR Correction and Potentiator Properties of Compounds
A) Membrane Potential Optical Methods for Assaying ΔF508-CFTR Modulation Properties of Compounds
The optical membrane potential assay utilized voltage-sensitive FRET sensors described by Gonzalez and Tsien (See, Gonzales, J. E. and R. Y. Tsien (1995) “Voltage sensing by fluorescence resonance energy transfer in single cells” Biophys J 69 (4): 1272-80, and Gonzalez, J. E. and R. Y. Tsien (1997) “Improved indicators of cell membrane potential that use fluorescence resonance energy transfer” Chem Biol 4 (4): 269-77) in combination with instrumentation for measuring fluorescence changes such as the Voltage/Ion Probe Reader (VIPR) (See, Gonzalez, J. E., K. Oades, et al. (1999) “Cell-based assays and instrumentation for screening ion-channel targets” Drug Discov Today 4 (9): 431-439).
These voltage sensitive assays are based on the change in fluorescence resonant energy transfer (FRET) between the membrane-soluble, voltage-sensitive dye, DiSBAC2 (3), and a fluorescent phospholipid, CC2-DMPE, which is attached to the outer leaflet of the plasma membrane and acts as a FRET donor. Changes in membrane potential (Vm) cause the negatively charged DiSBAC2(3) to redistribute across the plasma membrane and the amount of energy transfer from CC2-DMPE changes accordingly. The changes in fluorescence emission were monitored using VIPR™ II, which is an integrated liquid handler and fluorescent detector designed to conduct cell-based screens in 96- or 384-well microtiter plates.
To identify small molecules that correct the trafficking defect associated with ΔF508-CFTR; a single-addition HTS assay format was developed. The cells were incubated in serum-free medium for 16 hrs at 37° C. in the presence or absence (negative control) of test compound. As a positive control, cells plated in 384-well plates were incubated for 16 hrs at 27° C. to “temperature-correct” ΔF508-CFTR. The cells were subsequently rinsed 3× with Krebs Ringers solution and loaded with the voltage-sensitive dyes. To activate ΔF508-CFTR, […] and the CFTR potentiator, genistein ([…]), were added along with Cl^−-free medium to each well. The addition of Cl^−-free medium promoted Cl^− efflux in response to ΔF508-CFTR activation and the resulting membrane depolarization was optically monitored using the FRET-based voltage-sensor dyes.
To identify potentiators of ΔF508-CFTR, a double-addition HTS assay format was developed. During the first addition, a Cl^−-free medium with or without test compound was added to each well. After 22 sec, a second addition of Cl^−-free medium containing 2-10 µM forskolin was added to activate ΔF508-CFTR. The extracellular Cl^− concentration following both additions was 28 mM, which promoted Cl^− efflux in response to ΔF508-CFTR activation and the resulting membrane depolarization was optically monitored using the FRET-based voltage-sensor dyes.
• Bath Solution #1: (in mM) NaCl 160, KCl 4.5, CaCl2 2, MgCl2 1, HEPES 10, pH 7.4 with NaOH. • Chloride-free bath solution: Chloride salts in Bath Solution #1 are substituted with gluconate salts. • CC2-DMPE: Prepared as a 10 mM stock solution in DMSO and stored at −20° C. • DiSBAC2(3): Prepared as a 10 mM stock in DMSO and stored at −20° C. Cell Culture
NIH3T3 mouse fibroblasts stably expressing ΔF508-CFTR are used for optical measurements of membrane potential. The cells are maintained at 37° C. in 5% CO2 and 90% humidity in Dulbecco's modified Eagle's medium supplemented with 2 mM glutamine, 10% fetal bovine serum, 1×NEAA, β-ME, 1×pen/strep, and 25 mM HEPES in 175 cm^2 culture flasks. For all optical assays, the cells were seeded at 30,000/well in 384-well matrigel-coated plates and cultured for 2 hrs at 37° C. before culturing at 27° C. for 24 hrs. for the potentiator assay. For the correction assays, the cells are cultured at 27° C. or 37° C. with and without compounds for 16-24 hours.

T1 sequence (P13569 with tags, fused parts or gaps DEL508-508): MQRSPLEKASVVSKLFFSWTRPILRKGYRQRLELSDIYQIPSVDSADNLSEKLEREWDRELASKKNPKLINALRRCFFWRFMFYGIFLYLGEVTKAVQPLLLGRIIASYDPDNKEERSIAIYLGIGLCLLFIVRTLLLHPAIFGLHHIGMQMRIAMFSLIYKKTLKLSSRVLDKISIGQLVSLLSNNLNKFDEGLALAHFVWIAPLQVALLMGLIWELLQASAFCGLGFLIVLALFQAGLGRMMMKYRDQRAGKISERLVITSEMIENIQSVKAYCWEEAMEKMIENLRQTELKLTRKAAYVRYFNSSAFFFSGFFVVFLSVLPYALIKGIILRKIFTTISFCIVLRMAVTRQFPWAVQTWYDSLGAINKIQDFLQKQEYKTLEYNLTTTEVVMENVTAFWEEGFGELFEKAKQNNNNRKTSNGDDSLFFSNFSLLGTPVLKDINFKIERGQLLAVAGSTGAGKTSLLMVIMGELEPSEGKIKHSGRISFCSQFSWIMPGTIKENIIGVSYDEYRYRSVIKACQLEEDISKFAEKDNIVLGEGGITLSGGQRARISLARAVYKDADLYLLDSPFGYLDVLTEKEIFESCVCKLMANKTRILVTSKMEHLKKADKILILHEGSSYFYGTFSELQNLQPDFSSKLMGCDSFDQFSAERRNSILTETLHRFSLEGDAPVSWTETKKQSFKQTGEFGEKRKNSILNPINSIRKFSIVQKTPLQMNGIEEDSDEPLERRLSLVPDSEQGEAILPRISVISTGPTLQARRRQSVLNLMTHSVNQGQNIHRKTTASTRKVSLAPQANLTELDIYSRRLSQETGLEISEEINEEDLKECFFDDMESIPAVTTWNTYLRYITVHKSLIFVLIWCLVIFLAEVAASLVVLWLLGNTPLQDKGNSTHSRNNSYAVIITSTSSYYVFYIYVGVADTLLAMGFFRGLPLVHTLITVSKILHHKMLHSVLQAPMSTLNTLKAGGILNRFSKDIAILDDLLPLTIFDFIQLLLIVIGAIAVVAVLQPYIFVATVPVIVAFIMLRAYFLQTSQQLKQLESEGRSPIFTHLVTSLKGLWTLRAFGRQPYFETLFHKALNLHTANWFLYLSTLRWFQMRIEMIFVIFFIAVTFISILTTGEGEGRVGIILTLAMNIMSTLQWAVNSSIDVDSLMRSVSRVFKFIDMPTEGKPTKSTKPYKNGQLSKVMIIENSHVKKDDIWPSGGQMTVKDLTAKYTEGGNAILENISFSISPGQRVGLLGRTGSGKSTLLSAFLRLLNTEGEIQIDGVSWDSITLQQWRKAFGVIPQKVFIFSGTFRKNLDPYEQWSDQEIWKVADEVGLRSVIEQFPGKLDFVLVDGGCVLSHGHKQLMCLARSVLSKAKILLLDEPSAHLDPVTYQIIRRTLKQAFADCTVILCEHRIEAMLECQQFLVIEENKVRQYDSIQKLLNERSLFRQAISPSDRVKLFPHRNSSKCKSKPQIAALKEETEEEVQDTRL

| Compound | % Activity | EC50 [µM] |
| --- | --- | --- |
| COc1ccc(-c2csc(NC(=O)c3ccccc3)n2)c(OC)c1 [compound 162] | ++ (“++” means between 25% to 100%) | 25 to 60 |
| O=C(CN1CCCCC1)Nc1ncc(Cc2cccc3ccccc23)s1 [compound 65] | ++ (“++” means between 25% to 100%) | 10 to 25 |
| CC(C)C(C(=O)Nc1nc(-c2ccncc2)cs1)c1ccc(F)cc1F (stereo not shown) [compound 34] | ++ (“++” means between 25% to 100%) | 10 to 25 |
| CCC(C(=O)Nc1ncc(C(=O)c2ccccc2Cl)s1)c1ccccc1 (stereo not shown) [compound 262] | ++ (“++” means between 25% to 100%) | 25 to 60 |
| COc1ccccc1Cc1cnc(NC(=O)c2ccccc2)o1 [compound 185] | ++ (“++” means between 25% to 100%) | 10 to 25 |
| COc1cccc(-c2csc(NC(=O)c3ccc(C)cc3)n2)c1 [compound 83] | +++ (“+++” means >100%) | 10 to 25 |
| CCC(C(=O)Nc1ncc(Cc2ccccc2OC)o1)c1ccccc1 (stereo not shown) [compound 183] | ++ (“++” means between 25% to 100%) | 25 to 60 |
| CCCCc1ccc(C(=O)Nc2nccs2)cc1 [compound 16] | +++ (“+++” means >100%) | < 10 |
| CC(CC(=O)Nc1ncc(Cc2ccccc2C#N)s1)c1ccccc1 (stereo not shown) [compound 276] | ++ (“++” means between 25% to 100%) | 25 to 60 |
| O=C(Nc1ncc(Cc2ccc(Cl)cc2)o1)C(c1ccccc1)C1CCCC1 (stereo not shown) [compound 148] | ++ (“++” means between 25% to 100%) | < 10 |
| O=C(O)c1ccccc1C(=O)Nc1nc(-c2ccccc2)c(-c2ccccc2)s1 [compound 59] | ++ (“++” means between 25% to 100%) | 10 to 25 |
| CCOc1ccc2nc(NC(=O)C(CC)c3ccccc3)sc2c1 (stereo not shown) [compound 265] | +++ (“+++” means >100%) | < 10 |
| O=C(Nc1ncc(-c2ccccc2)s1)c1ccccc1 [compound 18] | ++ (“++” means between 25% to 100%) | 10 to 25 |
| CC(C)(C(=O)Nc1ncc(Cc2ccccc2Cl)s1)c1ccccc1 [compound 238] | +++ (“+++” means >100%) | < 10 |
| O=C(Nc1ncc(Cc2cccc(Cl)c2Cl)s1)C(c1ccccc1)c1ccccc1 [compound 56] | ++ (“++” means between 25% to 100%) | < 10 |
| Cc1ccc(C(=O)Nc2nc(C)c(C)s2)cc1 [compound 66] | ++ (“++” means between 25% to 100%) | 10 to 25 |
| CCC(C)C(C(=O)Nc1ncc(Cc2ccccc2)s1)c1ccccc1 (stereo not shown) [compound 98] | ++ (“++” means between 25% to 100%) | < 10 |
| CCC(C(=O)Nc1ncc(Cc2ccccc2Cl)s1)N(C)C (stereo not shown) [compound 222] | ++ (“++” means between 25% to 100%) | 25 to 60 |
| COc1ccc(C(=O)Nc2nc(-c3ccccc3)cs2)cc1 [compound 78] | ++ (“++” means between 25% to 100%) | 10 to 25 |
| Cc1ccccc1C(=O)Nc1nc(-c2ccccc2)c(-c2ccccc2)s1 [compound 71] | ++ (“++” means between 25% to 100%) | < 10 |
| O=C(Nc1ncc(Cc2ccccc2)s1)C(c1ccccc1)c1ccccc1 [compound 25] | ++ (“++” means between 25% to 100%) | < 10 |
| CN(Cc1ccccc1)C(C(=O)Nc1ncc(Cc2ccccc2Cl)s1)c1ccccc1 (stereo not shown) [compound 254] | ++ (“++” means between 25% to 100%) | < 10 |
| O=C(Nc1ncc(Cc2ccccc2Cl)s1)C(NC1CCCC1)c1ccccc1 (stereo not shown) [compound 250] | ++ (“++” means between 25% to 100%) | < 10 |
| O=C(Nc1ncc(Cc2ccc(Cl)cc2)s1)c1ccccc1Cl [compound 33] | ++ (“++” means between 25% to 100%) | 10 to 25 |
| CC(C(=O)Nc1nc(-c2ccccc2)c(-c2ccccc2)s1)N1CCN(S(=O)(=O)c2ccc(Cl)cc2)CC1 (stereo not shown) [compound 197] | ++ (“++” means between 25% to 100%) | < 10 |
| O=C(Nc1ncc(Cc2ccccc2Cl)s1)C1c2ccccc2Oc2ccccc21 [compound 90] | +++ (“+++” means >100%) | < 10 |
| CCC(C(=O)Nc1ncc(Cc2cccc(Cl)c2)o1)c1ccccc1 (stereo not shown) [compound 154] | ++ (“++” means between 25% to 100%) | < 10 |
| COc1ccccc1Cc1cnc(NC(=O)C(c2ccccc2)C(C)C)s1 (stereo not shown) [compound 138] | ++ (“++” means between 25% to 100%) | < 10 |
| COc1ccc(S(=O)(=O)N2CCN(C(C)C(=O)Nc3nc(-c4ccccc4)c(-c4ccccc4)s3)CC2)cc1 (stereo not shown) [compound 196] | ++ (“++” means between 25% to 100%) | < 10 |
| CCC(C(=O)Nc1ncc(Cc2cccc(OC)c2)s1)c1ccccc1 (stereo not shown) [compound 284] | ++ (“++” means between 25% to 100%) | < 10 |

Results, then the compound that gave them:

| % Activity | EC50 [µM] | Compound |
| --- | --- | --- |
| ++ (“++” means between 25% to 100%) | < 10 | Cc1ccc(S(=O)(=O)N2CCN(C(C)C(=O)Nc3nc(-c4ccccc4)c(-c4ccccc4)s3)CC2)cc1 (stereo not shown) [compound 198] |
| ++ (“++” means between 25% to 100%) | < 10 | CC1CCN(C(C(=O)Nc2ncc(Cc3ccccc3Cl)s2)c2ccccc2)CC1 (stereo not shown) [compound 246] |
| ++ (“++” means between 25% to 100%) | < 10 | CCC(C(=O)Nc1ncc(Cc2ccc(OC)cc2)s1)c1ccccc1 (stereo not shown) [compound 286] |
| ++ (“++” means between 25% to 100%) | < 10 | O=C(Nc1ncc(Cc2ccccc2Cl)s1)C(c1ccccc1)N1CCCC(CO)C1 (stereo not shown) [compound 244] |
| ++ (“++” means between 25% to 100%) | < 10 | CCOC(=O)C1CCCN(C(C(=O)Nc2ncc(Cc3ccccc3Cl)s2)c2ccccc2)C1 (stereo not shown) [compound 245] |
| ++ (“++” means between 25% to 100%) | < 10 | CCC(C)C(C(=O)Nc1ncc(Cc2cccc(Cl)c2)s1)c1ccccc1 (stereo not shown) [compound 129] |
| ++ (“++” means between 25% to 100%) | < 10 | Cc1ccccc1C(=O)Nc1nc2c(C)cccc2s1 [compound 40] |
| +++ (“+++” means >100%) | < 10 | O=C(Nc1ncc(Cc2ccc(Cl)cc2)s1)C(c1ccccc1)C1CCCC1 (stereo not shown) [compound 122] |
| +++ (“+++” means >100%) | < 10 | CC(C)C(C(=O)Nc1ncc(Cc2ccc(Cl)cc2)s1)c1ccccc1 (stereo not shown) [compound 123] |
| ++ (“++” means between 25% to 100%) | < 10 | CCC(C(=O)Nc1ncc(C(O)c2ccccc2Cl)s1)c1ccccc1 (stereo not shown) [compound 263] |
| +++ (“+++” means >100%) | < 10 | COc1ccccc1C(=O)Nc1nc(-c2ccccc2)c(-c2ccccc2)s1 [compound 51] |
| ++ (“++” means between 25% to 100%) | < 10 | O=C(Nc1ncc(Cc2ccccc2Cl)s1)C(c1ccccc1)n1cccn1 (stereo not shown) [compound 235] |
| +++ (“+++” means >100%) | < 10 | Cc1ccc(C(=O)Nc2nc(-c3ccccc3)c(-c3ccccc3)s2)cc1 [compound 52] |
| ++ (“++” means between 25% to 100%) | < 10 | CCC(C)C(C(=O)Nc1ncc(Cc2cccc(Cl)c2)o1)c1ccccc1 (stereo not shown) [compound 155] |
